Test results as given in ChEMBL document CHEMBL3880394, “Benzazole derivatives and their use as jnk modulators” (2003).

What was measured:
[1] = Antiinflammatory activity in human Jurkat cells assessed as inhibition of PMA/ionomycine-induced IL2 production preincubated for 30 mins followed by PMA/ionomycine induction measured after 24 hrs by ELISA relative to control; assay type: functional
[2] = Neuroprotective activity against NGF, arabinosine deficiency and anti NGF antibody-mediated cell death in sympathetic neurons from new born rat superior cervical ganglia assessed as survival rate after 24 hrs by MTT assay relative to control; assay type: functional, Sympathetic neuron

| SMILES | inhibition (INH) [1] [%] | Survival [2] |
| --- | --- | --- |
| N#CC(c1ccnc(Cl)n1)c1nc2ccccc2s1 (stereo not given) | >30 | <=80% |
| N#CC(c1ccnc(NCCCn2ccnc2)n1)c1nc2ccccc2s1 (stereo not given) | – | <=80% |
| N#CC(c1ccnc(OCc2ccccn2)n1)c1nc2ccccc2s1 (stereo not given) | >30 | – |
| N#CC(c1ccnc(OCc2ccc(Cl)c(Cl)c2)n1)c1nc2ccccc2s1 (stereo not given) | – | <=80% |
